Data published in ChEMBL document CHEMBL4765489, “A FabG inhibitor targeting an allosteric binding site inhibits several orthologs from Gram-negative ESKAPE pathogens” (Bioorg Med Chem, 2021).
Active and inactive are the calls of the source. The rule behind the calls is not given here.

Legend:
[1] = Inhibition of Acinetobacter baumannii N-terminal His6-tagged FabG expressed in Escherichia coli BL21 (DE3) using AcAcCoA as substrate assessed as NADPH consumption measured for 6 to 10 mins in presence of NADPH by spectrophotometric analysis
[2] = Inhibition of Salmonella typhimurium N-terminal His6-tagged FabG expressed in Escherichia coli BL21 (DE3) using AcAcCoA as substrate assessed as NADPH consumption measured for 6 to 10 mins in presence of NADPH by spectrophotometric analysis; design: species or system Salmonella enterica subsp. enterica serovar Typhimurium
[3] = Inhibition of Escherichia coli N-terminal His6-tagged FabG expressed in Escherichia coli BL21 (DE3) using AcAcCoA as substrate assessed as NADPH consumption measured for 6 to 10 mins in presence of NADPH by spectrophotometric analysis
[4] = Inhibition of Klebsiella pneumoniae N-terminal His6-tagged FabG1 expressed in Escherichia coli BL21 (DE3) using AcAcCoA as substrate assessed as NADPH consumption measured for 6 to 10 mins in presence of NADPH by spectrophotometric analysis
[5] = Inhibition of Pseudomonas aeruginosa N-terminal His6-tagged FabG expressed in Escherichia coli BL21 (DE3) using AcAcCoA as substrate assessed as NADPH consumption measured for 6 to 10 mins in presence of NADPH by spectrophotometric analysis
[6] = Inhibition of Staphylococcus aureus N-terminal His6-tagged FabG expressed in Escherichia coli BL21 (DE3) using AcAcCoA as substrate assessed as NADPH consumption measured for 6 to 10 mins in presence of NADPH by spectrophotometric analysis
[7] = Inhibition of Acinetobacter baumannii N-terminal His6-tagged FabG expressed in Escherichia coli BL21 (DE3) using 3-OHdNAC as substrate assessed as NADPH formation incubated for 2 hrs in presence of NADP by fluorescence based analysis
[8] = Inhibition of Salmonella typhimurium N-terminal His6-tagged FabG expressed in Escherichia coli BL21 (DE3) using 3-OHdNAC as substrate assessed as NADPH formation incubated for 2 hrs in presence of NADP by spectrophotometric analysis; design: species or system Salmonella enterica subsp. enterica serovar Typhimurium
[9] = tested on: Acinetobacter baumannii; assay: Allosteric binding affinity to Acinetobacter baumannii N-terminal His6-tagged FabG expressed in Escherichia coli BL21 (DE3) assessed as melting temperature at 1 mM incubated for 15 mins by Sypro orange dye based differential scanning fluorimetry (reference value: 61.3 degreeC)
[10] = tested on: Escherichia coli; assay: Allosteric binding affinity to Escherichia coli N-terminal His6-tagged FabG expressed in Escherichia coli BL21 (DE3) assessed as protein destabilization by measuring decrease in melting temperature at 1 mM incubated for 15 mins by Sypro orange dye based differential scanning fluorimetry
[11] = tested on: Salmonella enterica subsp. enterica serovar Typhimurium; assay: Allosteric binding affinity to Salmonella typhimurium N-terminal His6-tagged FabG expressed in Escherichia coli BL21 (DE3) assessed as protein destabilization by measuring decrease in melting temperature at 1 mM incubated for 15 mins by Sypro orange dye based differential scanning fluorimetry
[12] = tested on: Klebsiella pneumoniae; assay: Allosteric binding affinity to Klebsiella pneumoniae N-terminal His6-tagged FabG expressed in Escherichia coli BL21 (DE3) assessed as protein destabilization by measuring decrease in melting temperature at 1 mM incubated for 15 mins by Sypro orange dye based differential scanning fluorimetry
[13] = tested on: Pseudomonas aeruginosa; assay: Allosteric binding affinity to Pseudomonas aeruginosa N-terminal His6-tagged FabG expressed in Escherichia coli BL21 (DE3) assessed as protein destabilization by measuring decrease in melting temperature at 1 mM incubated for 15 mins by Sypro orange dye based differential scanning fluorimetry
[14] = tested on: Staphylococcus aureus; assay: Allosteric binding affinity to Staphylococcus aureus N-terminal His6-tagged FabG expressed in Escherichia coli BL21 (DE3) assessed as protein destabilization by measuring decrease in melting temperature at 1 mM incubated for 15 mins by Sypro orange dye based differential scanning fluorimetry
[15] = tested on: Acinetobacter baumannii; assay: Allosteric binding affinity to Acinetobacter baumannii N-terminal His6-tagged FabG expressed in Escherichia coli BL21 (DE3) assessed as reduction in NADPH bound protein fraction at 100 to 500 uM by fluorescence based analysis; details: dose 100-500 µM

IC50 [1] [µM] | IC50 [2] [µM] | IC50 [3] [µM] | IC50 [4] [µM] | IC50 [5] [µM] | IC50 [6] [µM] | IC50 [7] [µM] | IC50 [8] [µM] | Tm [9] [°C] | Activity [10] | Activity [11] | Activity [12] | Activity [13] | Activity [14] | Activity [15] | Structure (SMILES)
64 | 12 | 7 | 13.8 | 19.7 | 70.7 | 0.36 | 35 | 58.5 | Active | Active | Active | Active | Active | Active | CCOC(=O)c1c(CN(C)C)n(-c2ccccc2)c2cc(Br)c(O)cc12
– | 150 | 19.9 | 137 | 30.9 | – | – | 22 | – | – | – | – | – | – | – | O=c1[nH]c(SCc2c(Cl)cccc2Cl)nc2ccnn12
33.4 | 175 | – | 186 | 3.1 | – | – | 5.1 | – | – | – | – | – | – | – | O=C(Nc1ccc(Br)cc1C(=O)O)c1cccs1
